{"source": "patent US11096985B2", "about": "“Antimicrobial peptides, their variants and uses” (priority 2015, dated 2021)", "key": {"[1]": {"test_system": "clinical strains of Escherichia coli", "test": "MIC, clinical strains of E. coli", "type": "cell-based", "set-up": "unit: μg/ml", "details": "microdilution, Muller Hinton broth-cation adjusted, 0.02% BSA, 0.2% acetic acid", "outline": "(§1)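 By broth microdilution, Chain peptides from 0.125 to 128 μg/ml were tested against clinical strains adjusted to 5.0×10^5 cfu/ml, with bacteria in MH broth and yeasts in Potato dextrose broth. After 20–24 h at 37 °C, the lowest peptide concentration without visible growth was scored as MIC.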"}, "[2]": {"test_system": "clinical strains of Klebsiella pneumoniae", "test": "MIC, clinical strains of K. pneumoniae", "type": "cell-based", "set-up": "unit: μg/ml", "details": "microdilution, Muller Hinton broth-cation adjusted, 0.02% BSA, 0.2% acetic acid", "outline": "as §1"}, "[3]": {"test_system": "clinical strains of Pseudomonas aeruginosa", "test": "MIC, clinical strains of P. aeruginosa", "type": "cell-based", "set-up": "unit: μg/ml", "details": "microdilution, Muller Hinton broth-cation adjusted, 0.02% BSA, 0.2% acetic acid", "outline": "as §1"}, "[4]": {"test_system": "clinical strains of Serratia marcescens", "test": "MIC, clinical strains of Serratia marcescens", "type": "cell-based", "set-up": "unit: µg/mL", "details": "microdilution, Muller Hinton broth-cation adjusted, 0.02% BSA, 0.2% acetic acid", "outline": "as §1"}, "[5]": {"test_system": "clinical strains of Proteus mirabilis", "test": "MIC, clinical strains of Proteus mirabilis", "type": "cell-based", "set-up": "unit: µg/mL", "details": "microdilution, Muller Hinton broth-cation adjusted, 0.02% BSA, 0.2% acetic acid", "outline": "as §1"}, "[6]": {"test_system": "clinical strains of Enterobacter cloacae", "test": "MIC, clinical strains of Enterobacter cloacae", "type": "cell-based", "set-up": "unit: μg/ml", "details": "microdilution, Muller Hinton broth-cation adjusted, 0.02% BSA, 0.2% acetic acid", "outline": "as §1"}, "[7]": {"test_system": "clinical strains of Staphylococcus aureus", "test": "MIC, clinical strains of S. aureus", "type": "cell-based", "set-up": "unit: μg/ml", "details": "microdilution, Muller Hinton broth-cation adjusted, 0.02% BSA, 0.2% acetic acid", "outline": "as §1"}, "[8]": {"test_system": "clinical strains of Streptococcus pneumoniae", "test": "MIC, clinical strains of Streptococcus pneumoniae", "type": "cell-based", "set-up": "unit: µg/mL", "details": "microdilution, Muller Hinton broth-cation adjusted, 0.02% BSA, 0.2% acetic acid", "outline": "as §1"}, "[9]": {"test_system": "clinical strains of Acinetobacter baumannii", "test": "MIC, clinical strains of Acinetobacter baumannii", "type": "cell-based", "details": "microdilution, Muller Hinton broth-cation adjusted, 0.02% BSA, 0.2% acetic acid", "outline": "as §1"}, "[10]": {"test_system": "clinical strains of Acinetobacter johnsonii", "type": "cell-based", "details": "Acinetobacter johnsonii clinical strain 1; microdilution, Muller Hinton broth-cation adjusted, 0.02% BSA, 0.2% acetic acid", "outline": "as §1"}, "[11]": {"test_system": "clinical strains of Candida albicans", "test": "MIC, clinical yeast strains, Candida albicans", "type": "cell-based", "set-up": "unit: μg/ml", "outline": "as §1"}, "[12]": {"test_system": "clinical strains of C. glabrata", "test": "MIC, clinical yeast strains, C. glabrata", "type": "cell-based, Candida glabrata", "set-up": "unit: μg/ml", "outline": "as §1"}, "[13]": {"test_system": "clinical strains of C. parapsilosis", "test": "MIC, clinical yeast strains, C. parapsilosis", "type": "cell-based, Candida parapsilosis", "set-up": "unit: μg/ml", "outline": "as §1"}, "[14]": {"test_system": "clinical strains of C. quillermondiae", "test": "MIC, clinical yeast strains, C. quillermondiae", "type": "cell-based", "details": "C. quillermondiae clinical yeast strain 1", "outline": "as §1"}}, "note": "Where a SMILES comes first, the peptide text is derived from it. [ ]: non-standard residue; d: D form."}
{"smiles": "CC(C)C[C@@H](NC(=O)[C@H](N)CCCNC(=N)N)C(=O)N[C@H](CCCCN)C(=O)N[C@H](Cc1c[nH]c2ccccc12)C(=O)N[C@H](Cc1ccccc1)C(=O)N[C@H](CC(C)C)C(=O)N[C@H](CC(C)C)C(=O)N[C@H](Cc1ccccc1)C(=O)N[C@H](CCCNC(=N)N)C(=O)N[C@H](CCCCN)C(=O)N[C@H](CCCNC(=N)N)C(=O)O", "note": "[Chain308D] (H-[dR][dL][dK][dW][dF][dL][dL][dF][dR][dK][dR]-OH)", "values": [{"measurement": "Minimum inhibitory concentration", "setting": "[1]; Escherichia coli clinical strain 1", "result": 1}, {"measurement": "Minimum inhibitory concentration", "setting": "[1]; Escherichia coli clinical strain 2", "result": 0.5}, {"measurement": "Minimum inhibitory concentration", "setting": "[1]; Escherichia coli clinical strain 3", "result": 1}, {"measurement": "Minimum inhibitory concentration", "setting": "[1]; Escherichia coli clinical strain 4", "result": 1}, {"measurement": "Minimum inhibitory concentration", "setting": "[1]; Escherichia coli clinical strain 5", "result": 1}, {"measurement": "Minimum inhibitory concentration", "setting": "[2]; Klebsiella pneumoniae clinical strain 1", "result": 4}, {"measurement": "Minimum inhibitory concentration", "setting": "[2]; Klebsiella pneumoniae clinical strain 2", "result": 4}, {"measurement": "Minimum inhibitory concentration", "setting": "[2]; Klebsiella pneumoniae clinical strain 3", "result": 4}, {"measurement": "Minimum inhibitory concentration", "setting": "[2]; Klebsiella pneumoniae clinical strain 4", "result": 4}, {"measurement": "Minimum inhibitory concentration", "setting": "[2]; Klebsiella pneumoniae clinical strain 5", "result": 4}, {"measurement": "Minimum inhibitory concentration", "setting": "[3]; Pseudomonas aeruginosa clinical strain 1", "result": 8}, {"measurement": "Minimum inhibitory concentration", "setting": "[3]; Pseudomonas aeruginosa clinical strain 2", "result": 8}, {"measurement": "Minimum inhibitory concentration", "setting": "[3]; Pseudomonas aeruginosa clinical strain 3", "result": 4}, {"measurement": "Minimum inhibitory concentration", "setting": "[3]; Pseudomonas aeruginosa clinical strain 4", "result": 4}, {"measurement": "Minimum inhibitory concentration", "setting": "[3]; Pseudomonas aeruginosa clinical strain 5", "result": 4}, {"measurement": "Minimum inhibitory concentration", "setting": "[4]; Serratia marcescens clinical strain 1", "result": 128}, {"measurement": "Minimum inhibitory concentration", "setting": "[4]; Serratia marcescens clinical strain 2", "result": 128}, {"measurement": "Minimum inhibitory concentration", "setting": "[4]; Serratia marcescens clinical strain 3", "result": 64}, {"measurement": "Minimum inhibitory concentration", "setting": "[4]; Serratia marcescens clinical strain 4", "result": ">128"}, {"measurement": "Minimum inhibitory concentration", "setting": "[4]; Serratia marcescens clinical strain 5", "result": 128}, {"measurement": "Minimum inhibitory concentration", "setting": "[5]; Proteus mirabilis clinical strain 1", "result": ">128"}, {"measurement": "Minimum inhibitory concentration", "setting": "[5]; Proteus mirabilis clinical strain 2", "result": 32}, {"measurement": "Minimum inhibitory concentration", "setting": "[5]; Proteus mirabilis clinical strain 3", "result": 128}, {"measurement": "Minimum inhibitory concentration", "setting": "[5]; Proteus mirabilis clinical strain 4", "result": ">128"}, {"measurement": "Minimum inhibitory concentration", "setting": "[5]; Proteus mirabilis clinical strain 5", "result": ">128"}, {"measurement": "Minimum inhibitory concentration", "setting": "[6]; Enterobacter cloacae clinical strain 1", "result": 2}, {"measurement": "Minimum inhibitory concentration", "setting": "[6]; Enterobacter cloacae clinical strain 2", "result": 2}, {"measurement": "Minimum inhibitory concentration", "setting": "[6]; Enterobacter cloacae clinical strain 3", "result": 2}, {"measurement": "Minimum inhibitory concentration", "setting": "[6]; Enterobacter cloacae clinical strain 4", "result": 2}, {"measurement": "Minimum inhibitory concentration", "setting": "[6]; Enterobacter cloacae clinical strain 5", "result": 2}, {"measurement": "Minimum inhibitory concentration", "setting": "[7]; Staphylococcus aureus clinical strain 1", "result": 1}, {"measurement": "Minimum inhibitory concentration", "setting": "[7]; Staphylococcus aureus clinical strain 2", "result": 2}, {"measurement": "Minimum inhibitory concentration", "setting": "[7]; Staphylococcus aureus clinical strain 3", "result": 1}, {"measurement": "Minimum inhibitory concentration", "setting": "[7]; Staphylococcus aureus clinical strain 4", "result": 2}, {"measurement": "Minimum inhibitory concentration", "setting": "[7]; Staphylococcus aureus clinical strain 5", "result": 2}, {"measurement": "Minimum inhibitory concentration", "setting": "[8]; Streptococcus pneumoniae clinical strain 1", "result": 8}, {"measurement": "Minimum inhibitory concentration", "setting": "[8]; Streptococcus pneumoniae clinical strain 2", "result": 4}, {"measurement": "Minimum inhibitory concentration", "setting": "[8]; Streptococcus pneumoniae clinical strain 3", "result": 8}, {"measurement": "Minimum inhibitory concentration", "setting": "[8]; Streptococcus pneumoniae clinical strain 4", "result": 2}, {"measurement": "Minimum inhibitory concentration", "setting": "[8]; Streptococcus pneumoniae clinical strain 5", "result": 4}, {"measurement": "Minimum inhibitory concentration", "setting": "[9]; Acinetobacter baumannii clinical strain 1", "result": 4}, {"measurement": "Minimum inhibitory concentration", "setting": "[9]; Acinetobacter baumannii clinical strain 2", "result": 4}, {"measurement": "Minimum inhibitory concentration", "setting": "[9]; Acinetobacter baumannii clinical strain 3", "result": 4}, {"measurement": "Minimum inhibitory concentration", "setting": "[9]; Acinetobacter baumannii clinical strain 4", "result": 2}, {"measurement": "Minimum inhibitory concentration", "setting": "[9]; Acinetobacter baumannii clinical strain 5", "result": 2}, {"measurement": "Minimum inhibitory concentration", "setting": "[10]", "result": 4}, {"measurement": "Minimum inhibitory concentration", "setting": "[11]; Candida albicans clinical yeast strain 1", "result": 16}, {"measurement": "Minimum inhibitory concentration", "setting": "[11]; Candida albicans clinical yeast strain 2", "result": 16}, {"measurement": "Minimum inhibitory concentration", "setting": "[11]; Candida albicans clinical yeast strain 3", "result": 16}, {"measurement": "Minimum inhibitory concentration", "setting": "[11]; Candida albicans clinical yeast strain 4", "result": 16}, {"measurement": "Minimum inhibitory concentration", "setting": "[11]; Candida albicans clinical yeast strain 5", "result": 16}, {"measurement": "Minimum inhibitory concentration", "setting": "[12]; C. glabrata clinical yeast strain 1", "result": 16}, {"measurement": "Minimum inhibitory concentration", "setting": "[12]; C. glabrata clinical yeast strain 2", "result": 16}, {"measurement": "Minimum inhibitory concentration", "setting": "[12]; C. glabrata clinical yeast strain 3", "result": 16}, {"measurement": "Minimum inhibitory concentration", "setting": "[12]; C. glabrata clinical yeast strain 4", "result": 16}, {"measurement": "Minimum inhibitory concentration", "setting": "[13]; C. parapsilosis clinical yeast strain 1", "result": 8}, {"measurement": "Minimum inhibitory concentration", "setting": "[13]; C. parapsilosis clinical yeast strain 2", "result": 8}, {"measurement": "Minimum inhibitory concentration", "setting": "[13]; C. parapsilosis clinical yeast strain 3", "result": 8}, {"measurement": "Minimum inhibitory concentration", "setting": "[13]; C. parapsilosis clinical yeast strain 4", "result": 4}, {"measurement": "Minimum inhibitory concentration", "setting": "[14]", "result": 4}]}
